The record followed here is US20240124434A1, “ATF6 INHIBITORS AND USES THEREOF” (Altos Labs, Inc., priority 2018, published 2024).

pIC50: −log10 of the molar value. Like-named read-outs stand apart in the source and are kept apart here.

The test system of the experiment is ATF6. The experiment is described as follows: ERSE ATF6-luciferase reporter assay (thapsigargin-induced ER stress). In kind it is cell-based, human. The protocol:
Human bone osteosarcoma (U2-OS) cells were obtained from the American Type Culture Collection (ATCC HTB-96, ATCC Manassas, VA) and were cultured with growing medium containing Dulbecco's Modified Eagle's Medium (DMEM) (Cat. No.:SH30023.02, HyClone) supplemented with fetal bovine serum (FBS) 10% (Cat. No.: 16000044, Gibco) and 1% penicillin-streptomycin antibiotic cocktail (Cat. No.: SV30010, Hyclone).
Cignal Lenti ATF6 luc reporter (Qiagen #CLS-6031L) was used to produce a stable cell line in U2-OS cells. […] The number of response elements as well as the intervening sequence between response elements has been experimentally optimized to maximize the signal to noise ratio.
Compounds were prepared as 10 mM stock solutions and stored at −80° C.
U2-OS ATF6 luc reporter cells were thawed 3-4 days and split once prior to assays. […] At the day of experiment, cells were pre-treated for 30 min with 50 μL growing medium containing either vehicle (dimethyl sulfoxide (DMSO)) (Cat. No.: D2650, Sigma-Aldrich) or 1 μM test compound. After the pre-incubation time, 50 μL of a solution containing 0.2 μM thapsigargin (Tg)(an ER stress inducer) was added to respective wells. This Tg solution also contained vehicle or test compounds at 1 μM. The final concentration of DMSO in each well was kept at 0.3%. Plates were incubated for 8 hr in humidified chambers.
Finally, after 8 hr, plates were cooled to room temperature for 10 min prior to luciferase assays. Luciferase reactions were performed using Luciferase Assay System (Cat. No.: E4550, Promega). Briefly, each well was washed with 100 μl of PBS1X and then 20 μl of lysis reagent were added into each well. Plates were shaken for 10 min, then 50 μl of Luciferase Assay Reagent were added to each well and luminescence was read with an integration time of 1 s and a gain of 110 in a Synergy 4 Microplate reader.
For the assessment of the half-maximal inhibitory concentration (IC50) for selected compounds, dose-response assays were performed. Compounds were serially diluted using DMSO starting at 30 μM until 1 nM. The assays were run as described above.
In general terms: In a reporter assay the amount or activity of a reporter protein is the signal.

Where [1] appears, read: Homo sapiens, U2OS, 8 h, 1 μM test compound, thapsigargin-induced ER stress, U2-OS ATF6 luc reporter cells, 8 hr, read-out: Inh. ATF6-Luc @ 1 μM [%].
[2] abbreviates: Homo sapiens, U2OS, dose-response 30 μM to 1 nM, thapsigargin-induced ER stress, U2-OS ATF6 luc reporter cells, read-out: IC50 ATF6-Luc reporter.

For the compound `CC(c1ccc(C(F)(F)F)cc1C(F)(F)F)n1cc(NC(=O)c2cc(-c3ccccn3)on2)cn1` (single isomer, unassigned) [“Enantiomer B” of Example S5, N-(1-(1-(2,4-bis(trifluoromethyl)phenyl)ethyl)-1H-pyrazol-4-yl)-5-(pyridin-2-yl)isoxazole-3-carboxamide], the pIC50 – broadly, the IC50 on a negative log10 scale, so that one unit is a factor of ten – was under 5.00. For the same compound, where the note is “8 h, 1 µM”, the “Inh. ATF6-Luc @ 1 μM [%]” value is “+ (+ refers to <25% inhibition at 1 μM)”.
Take `C[C@@H](c1ccc(C(F)(F)F)cc1C(F)(F)F)n1cc(NC(=O)c2cc(-c3ncccc3Cl)on2)cn1` [Compound 35, (S)-N-(1-(1-(2,4-bis(trifluoromethyl)phenyl)ethyl)-1H-pyrazol-4-yl)-5-(3-chloropyridin-2-yl)isoxazole-3-carboxamide]: the inhibition at 1 µM under setting [1] is under 25%. Moreover, the negative-log IC50 (pIC50) under setting [2] is under 5.00.
For `CC(c1ccc(F)cc1C(F)(F)F)n1cc(NC(=O)c2nnc(-c3ccccn3)s2)cn1` (stereo not drawn) [Compound 137, N-(1-(1-(4-fluoro-2-(trifluoromethyl)phenyl)ethyl)-1H-pyrazol-4-yl)-5-(pyridin-2-yl)-1,3,4-thiadiazole-2-carboxamide] the same measures were under 25% and under 5.00.
The like results for `Cc1c(NC(=O)/C=C/c2ccco2)cnn1Cc1ccc(C(F)(F)F)cc1C(F)(F)F` [Compound 95, (E)—N-(1-(2,4-bis(trifluoromethyl)benzyl)-5-methyl-1H-pyrazol-4-yl)-3-(furan-2-yl)acrylamide] were, in that order, under 25% and under 5.00.
For `CC(c1ccc(C(F)(F)F)cc1C(F)(F)F)n1cc(NC(=O)c2cc(-c3ncccc3Cl)on2)cn1` (stereo not drawn) [Compound 32, N-(1-(1-(2,4-bis(trifluoromethyl)phenyl)ethyl)-1H-pyrazol-4-yl)-5-(3-chloropyridin-2-yl)isoxazole-3-carboxamide] the same measures were under 25% and under 5.00.
As for `CC(c1ccc(C(F)(F)F)cc1C(F)(F)F)n1cc(NC(=O)c2csc(-c3ccccn3)n2)cn1` (stereo not drawn) [Compound 79, N-(1-(1-(2,4-bis(trifluoromethyl)phenyl)ethyl)-1H-pyrazol-4-yl)-2-(pyridin-2-yl)thiazole-4-carboxamide], the inhibition at 1 µM (Homo sapiens, U2OS, 8 h, read-out: Inh. ATF6-Luc @ 1 μM [%]) is under 25%. Also, the IC50 (as a rule, the midpoint of a concentration-inhibition curve) (Homo sapiens, U2OS, read-out: IC50 ATF6-Luc reporter [μM]) is over 10 µM.
As for `N#Cc1ccc(Cn2cc(NC(=O)c3cc(-c4ccco4)on3)cn2)cc1` [Compound 25, N-(1-(4-cyanobenzyl)-1H-pyrazol-4-yl)-5-(furan-2-yl)isoxazole-3-carboxamide], under setting [1], the inhibition at 1 µM was under 25%. For the same compound, the pIC50 under setting [2] is under 5.00.
The like results for `CC(C)(C)c1cc(C(=O)Nc2cnn(Cc3ccc(C(F)(F)F)cc3C(F)(F)F)c2)no1` [Compound 13, N-{1-[2,4-bis(trifluoromethyl)benzyl]-1H-pyrazol-4-yl}-5-tert-butyl-1,2-oxazole-3-carboxamide] were, in that order, under 25% and under 5.00.
As to `Cc1c(C(=O)Nc2cnn(Cc3ccc(C(F)(F)F)cc3C(F)(F)F)c2)noc1-c1ccccn1` [Compound 135, N-(1-(2,4-bis(trifluoromethyl)benzyl)-1H-pyrazol-4-yl)-4-methyl-5-(pyridin-2-yl)isoxazole-3-carboxamide], the inhibition at 1 µM under setting [1] lay within 25 to 50%. For the same compound, under setting [2], the pIC50 is under 5.00.
For `O=C(Nc1cnn(C2CCc3ccccc32)c1)c1cc(-c2ccccn2)on1` (stereo not drawn) [Compound 143, N-(1-(2,3-dihydro-1H-inden-1-yl)-1H-pyrazol-4-yl)-5-(pyridin-2-yl)isoxazole-3-carboxamide], under setting [1], the inhibition at 1 µM was under 25%. Moreover, the pIC50 under setting [2] was under 5.00.
As for `O=C(Nc1cnn(C2Cc3ccccc3C2)c1)c1cc(-c2ccco2)on1` [Compound 18, N-(1-(2,3-dihydro-1H-inden-2-yl)-1H-pyrazol-4-yl)-5-(furan-2-yl) isoxazole-3-carboxamide], under setting [1], the inhibition at 1 µM is under 25%. Moreover, the negative-log IC50 (pIC50) under setting [2] is under 5.00.
Take `Cc1nc(-c2ccccn2)sc1C(=O)Nc1cnn([C@@H](C)c2ccc(C(F)(F)F)cc2C(F)(F)F)c1` [Compound 107, (S)—N-(1-(1-(2,4-bis(trifluoromethyl)phenyl)ethyl)-1H-pyrazol-4-yl)-4-methyl-2-(pyridin-2-yl)thiazole-5-carboxamide]: under setting [1], the inhibition at 1 µM was under 25%. Further, the negative-log IC50 (pIC50) under setting [2] was under 5.00.
For `C[C@H](c1ccc(C(F)(F)F)cc1C(F)(F)F)n1cc(NC(=O)/C=C/c2ccco2)cn1` [Compound 85, (R,E)—N-(1-(1-(2,4-bis(trifluoromethyl)phenyl)ethyl)-1H-pyrazol-4-yl)-3-(furan-2-yl)acrylamide] the same measures were under 25% and under 5.00.
The like results for `C[C@@H](c1ccc(C(F)(F)F)cc1C(F)(F)F)n1cc(NC(=O)c2cc(-c3ncccn3)on2)cn1` [Compound 102, (S)—N-(1-(1-(2,4-bis(trifluoromethyl)phenyl)ethyl)-1H-pyrazol-4-yl)-5-(pyrimidin-2-yl)isoxazole-3-carboxamide] were, in that order, under 25% and under 5.00.
For `O=C(Nc1cnn(Cc2ccc(C(F)(F)F)cc2C(F)(F)F)c1)c1cc(-c2ccncc2)on1` [Compound 10, N-(1-(2,4-bis(trifluoromethyl)benzyl)-1H-pyrazol-4-yl)-5-(pyridin-4-yl)isoxazole-3-carboxamide] the same measures were under 25% and 5.00 to 6.00.
Turning to `Cc1nn(Cc2ccc(C(F)(F)F)cc2C(F)(F)F)cc1NC(=O)c1cc(-c2ccco2)on1` [Compound 92, N-(1-(2,4-bis(trifluoromethyl)benzyl)-3-methyl-1H-pyrazol-4-yl)-5-(furan-2-yl)isoxazole-3-carboxamide], the inhibition at 1 µM under setting [1] is under 25%. Moreover, the pIC50 under setting [2] is under 5.00.
For `C[C@@H](c1ccc(C(F)(F)F)cc1F)n1cc(NC(=O)c2cc(-c3ccccn3)on2)cn1` [Compound 109, (S)—N-(1-(1-(2-fluoro-4-(trifluoromethyl)phenyl)ethyl)-1H-pyrazol-4-yl)-5-(pyridine-2-yl)isoxazole-3-carboxamide], under setting [1], the inhibition at 1 µM was under 25%. The pIC50 under setting [2] is under 5.00.
For `O=C(Nc1cnn(Cc2c(Cl)cccc2Cl)c1)c1cnc(-c2ccco2)s1` [Compound 147, N-(1-(2,6-dichlorobenzyl)-1H-pyrazol-4-yl)-2-(furan-2-yl)thiazole-5-carboxamide] the same measures were under 25% and under 5.00.
For `COc1ccccc1-c1cc(C(=O)Nc2cnn(Cc3ccc(C(F)(F)F)cc3C(F)(F)F)c2)no1` [Compound 91, N-(1-(2,4-bis(trifluoromethyl)benzyl)-1H-pyrazol-4-yl)-5-(2-methoxyphenyl)isoxazole-3-carboxamide], the pIC50 under setting [2] is under 5.00. The inhibition at 1 µM (Homo sapiens, U2OS, 1 μM test compound, thapsigargin-induced ER stress, U2-OS ATF6 luc reporter cells, 8 hr, read-out: Inh. ATF6-Luc @ 1 μM [%]) was under 25%.
For `C[C@@H](c1ccc(C(F)(F)F)cc1C(F)(F)F)n1cc(NC(=O)c2cnc(-c3ccccn3)s2)cn1` [Compound 105, (S)—N-(1-(1-(2,4-bis(trifluoromethyl)phenyl)ethyl)-1H-pyrazol-4-yl)-2-(pyridin-2-yl)thiazole-5-carboxamide], the inhibition at 1 µM (Homo sapiens, U2OS, 8 h, read-out: Inh. ATF6-Luc @ 1 μM [%], 1 μM test compound, thapsigargin-induced ER stress, U2-OS ATF6 luc reporter cells, 8 hr) is under 25%. The half-maximal inhibitory concentration (IC50) (Homo sapiens, U2OS, read-out: IC50 ATF6-Luc reporter [μM], dose-response 30 μM to 1 nM, thapsigargin-induced ER stress, U2-OS ATF6 luc reporter cells) was over 10 µM.
Consider `O=C(Nc1cnn(C(c2ccc(C(F)(F)F)cc2C(F)(F)F)C2CC2)c1)c1cc(-c2ccccn2)on1` (stereo not drawn) [Compound 33, N-(1-((2,4-bis(trifluoromethyl)phenyl)(cyclopropyl)methyl)-1H-pyrazol-4-yl)-5-(pyridin-2-yl)isoxazole-3-carboxamide], for which the inhibition at 1 µM under setting [1] is under 25%. For the same compound, the negative-log IC50 (pIC50) under setting [2] was under 5.00.
